Reference: US20210115494A1, “Improved method for measurement of microbial biomass” (Mycometer A/S, priority 2018, published 2021)

Key:
[1] = test system: NAHA activity from Graham-flour; assay: NAHA activity assay (4-methylumbelliferyl N-acetyl-β-D-glucosaminide, fluorescence), Graham-flour; format: biochemical; conditions: Graham Hour
Procedure: (§1) In order to determine NAHA activity in different samples, the technology in WO 98/033934 was employed: A sample containing a dried or freeze dried organism is added to a buffer solution containing 4-Methylumbelliferyl N-acetyl-β-D-glucosaminide in a concentration of 20 μM. The reaction-time is varied depending on the ambient temperature and according to a reaction-time/temperature data sheet previously developed for fungal NAHA activity at various temperatures, and is 30 minutes at 23° C. The resulting fluorescence formed during the reaction time is monitored in a calibrated fluorometer.
(§2) Experiments were conducted where varying concentrations of AgNO3 was added to an analysis substrate. Furthermore, the experiments where performed on dried or freeze dried materials where both intact and fragmented cells are to be expected to be present.
(§3) Experiments analogous to those in example 1 were carried out, but instead of using non-specific inhibitors, the effect of different concentrations of DNJNAc on the NAHA activity in various biomass containing samples was investigated.

[2] = test system: NAHA activity from Aspergillus versicolor; assay: NAHA activity assay, Aspergillus versicolor; format: biochemical
Procedure: as §1, §3

[3] = test system: NAHA activity from Aspergillus fumigatus; assay: NAHA activity assay, Aspergillus fumigatus (Table 4b, state not given); format: biochemical
Procedure: as §1, §3

fungal NAHA activity = assay: NAHA activity assay, fungal sources overall; format: biochemical, fungi
Procedure: as §1, §2, §3
The experiments were performed with whole cell/organism cultures rather than purified enzyme, which is normally used in experiments on specific inhibition. It is plausible, though, that the surprising non-specific inhibition effect observed for Ag^+ and Hg^+ could be due to the inhibitors being delayed in physically contacting the NAHA enzyme in the fungi when compared to other types of biomass.

CC(=O)N[C@H]1CN[C@H](CO)[C@@H](O)[C@@H]1O [DNJNAc, 2-Acetamido-1,2-dideoxynojirimycin]
NAHA activity, 0 μM DNJNAc = 100% ([1]; DNJNAc 24.5 μM): 14% | NAHA activity, 0 μM DNJNAc = 100% ([1]; DNJNAc 49 μM): 9% | NAHA activity, 0 μM DNJNAc = 100% ([1]; DNJNAc 98 μM): 6% | NAHA activity, 0 μM DNJNAc = 100% ([1]; DNJNAc 196 μM): 6% | NAHA activity, 0 μM DNJNAc = 100% ([2]; DNJNAc 24.5 μM): 92% | NAHA activity, 0 μM DNJNAc = 100% ([2]; DNJNAc 49 μM): 79% | NAHA activity, 0 μM DNJNAc = 100% ([2]; DNJNAc 98 μM): 71% | NAHA activity, 0 μM DNJNAc = 100% ([2]; DNJNAc 196 μM): 63% | NAHA activity, 0 μM DNJNAc = 100% ([3]; DNJNAc 24.5 μM): 122% | NAHA activity, 0 μM DNJNAc = 100% ([3]; DNJNAc 49 μM): 110% | NAHA activity, 0 μM DNJNAc = 100% ([3]; DNJNAc 98 μM): 89% | NAHA activity, 0 μM DNJNAc = 100% ([3]; DNJNAc 196 μM): 88% | fungal NAHA activity retained, average (fungal NAHA activity; 24.5 μM in the assay substrate): 83% | fungal NAHA activity retained, average (fungal NAHA activity; 196 μM): 60%
